Read-outs that look alike come from different tables or passages of the source.
Experiments:
[1] = test system: mitochondrial ATP production on non-small cell lung carcinoma cell lines NCI-H460; assay: Mitochondrial ATP analysis (Cell Titer Glo) in NCI-H460 cells; assay type: cell-based; details: 1-hour incubation, with sodium iodoacetate (100 μM), concentration inhibiting 50% of mitochondrial ATP production, read-out: IC50 (mito ATP)
Summary of the method: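 NCI-H460 cells (1,000/well) treated 24 h after plating for 1 h with compound dose series alone or with 100 μM sodium iodoacetate; oligomycin A (10 μg/ml) and FCCP (30 μM) as controls; Cell Titer Glo luminescence. Mitochondrial ATP = ATP under iodoacetate minus ATP under iodoacetate+oligomycin; IC50 (M).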

[2] = test system: HIF-1a; assay: Western blot model: HIF1-a stabilization in Hep3b cells under hypoxia; assay type: cell-based; details: hypoxia 1% O2, 6 hours; for Western Blot (range of decrease of HIF1-a stabilization): class symbol
Method: Since it was sought to determine the efficacy of the compounds to inhibit HIF1a stabilization under hypoxia, the compounds according to the invention underwent biochemical studies in order to determine their capacity to decrease HIF stabilization in Hep3b cells under hypoxia (western blot model).
Hep3B cells are seeded at a rate of 300000 cells per well in 6-wells culture plate in 2 ml of MEM supplemented with glutamin (2 mM) and 10% FCS (foetal calf serum) and incubated at 37° C. in the presence of 5% CO2. The next day, the cells are placed in contact with the compound and an incubation under hypoxia at 1% O2 is carried out at 37° C. in 95% humidity and 5% CO2 in a sealed anaerobic workstation (Hypoxystation H35-Don Whitley—AES Chemunex) during 6 hours.
Cells were washed (PBS) and lysed in SDS sample buffer. Proteins (25 μg) were separated on 4-12% Bis-Tris gels and transferred onto polyvinylidene difluoride membranes (Millipore). Membranes were blotted with a mouse monoclonal antibody to HIF-1a (BD transduction) and a mouse monoclonal anti-βactin (Sigma). Immunoreactive bands were detected with a horse radish peroxydase (HRP) anti-mouse antibody (Sigma) by enhanced chemiluminescence (Promega).
The inhibitory activity of the compounds for their capacity to decrease HIF1-a stabilization in Hep3b under hypoxia is expressed as range of percentage relative to control with: […]

SMILES | IC50 [1] | IC50 ([1]; Homo sapiens, NCI-H460, 1 h) | Western Blot (decrease of HIF1-a stabilization, percentage relative to control) [2] | Western Blot (range of decrease of HIF1-a stabilization) [2]
COc1ccc(C(O)COc2ccc(-c3csc(-c4ccc(OCC(O)c5ccc(OC)c(OC)c5)cc4)n3)cc2)cc1OC (single isomer, unassigned) [Compound I-61, 1-(3,4-dimethoxyphenyl)-2-[4-[2-[4-[2-(3,4-dimethoxyphenyl)-2-hydroxy-ethoxy]phenyl]thiazol-4-yl]phenoxy]ethanol] | 326 nM | – | 46% | * (* represents a decrease of HIF-a stabilization between 30 to 50%)
COc1ccc(C(O)COc2ccc(-c3csc(-c4ccc(OCC(O)c5ccc(OC)c(OC)c5)cc4)n3)cc2)cc1OC (single isomer, unassigned) [Compound I-62, 1-(3,4-dimethoxyphenyl)-2-[4-[2-[4-[2-(3,4-dimethoxyphenyl)-2-hydroxy-ethoxy]phenyl]thiazol-4-yl]phenoxy]ethanol] | 492 nM | – | 43% | * (* represents a decrease of HIF-a stabilization between 30 to 50%)
COc1ccc(C(O)COc2ccc(-c3csc(-c4ccc(OC(C)(C)C(O)c5ccc(OC)c(OC)c5)cc4)n3)cc2)cc1OC (single isomer, unassigned) [Compound I-65, 1-(3,4-dimethoxyphenyl)-2-[4-[4-[4-[2-(3,4-dimethoxyphenyl)-2-hydroxy-ethoxy]phenyl]thiazol-2-yl]phenoxy]-2-methyl-propan-1-ol] | – | 23.8 nM | 41% | * (* represents a decrease of HIF-a stabilization between 30 to 50%)
COc1ccc(C(O)COc2ccc(-c3csc(-c4ccc(OC(C)(C)C(O)c5ccc(OC)c(OC)c5)cc4)n3)cc2)cc1OC (single isomer, unassigned) [Compound I-66, 1-(3,4-dimethoxyphenyl)-2-[4-[4-[4-[2-(3,4-dimethoxyphenyl)-2-hydroxy-ethoxy]phenyl]thiazol-2-yl]phenoxy]-2-methyl-propan-1-ol] | 26.5 nM | – | 54% | ** (** represents a decrease of HIF-a stabilization between 50 to 70%)
COc1ccc(C(O)COc2ccc(-c3nc(-c4ccc(OCC(O)c5ccc(OC)c(OC)c5)cc4)c(C)o3)cc2)cc1OC (stereo not drawn) [Compound I-1, 1-(3,4-dimethoxyphenyl)-2-[4-[2-[4-[2-(3,4-dimethoxyphenyl)-2-hydroxy-ethoxy]phenyl]-5-methyl-oxazol-4-yl]phenoxy]ethanol] | – | 353 nM | 48% | * (* represents a decrease of HIF-a stabilization between 30 to 50%)
COc1ccc(C(O)COc2ccc(-c3nc(-c4ccc(OCC(O)c5ccc(OC)c(OC)c5)cc4)c(C)s3)cc2)cc1OC (stereo not drawn) [Compound I-7, 1-(3,4-dimethoxyphenyl)-2-[4-[2-[4-[2-(3,4-dimethoxyphenyl)-2-hydroxy-ethoxy]phenyl]-5-methyl-thiazol-4-yl]phenoxy]ethanol] | – | 284 nM | 63% | ** (** represents a decrease of HIF-a stabilization between 50 to 70%)
COc1ccc(C(O)C(C)Oc2ccc(-c3coc(-c4ccc(OC(C)C(O)c5ccc(OC)c(OC)c5)cc4)n3)cc2)cc1OC (stereo not drawn) [Compound I-12, 1-(3,4-dimethoxyphenyl)-2-[4-[2-[4-[2-(3,4-dimethoxyphenyl)-2-hydroxy-1-methyl-ethoxy]phenyl]oxazol-4-yl]phenoxy]propan-1-ol] | – | 128 nM | 38% | * (* represents a decrease of HIF-a stabilization between 30 to 50%)
COc1ccc(C(O)COc2ccc(-c3csc(-c4ccc(OCC(O)c5ccc(OC)c(OC)c5)cc4)c3)cc2)cc1OC (stereo not drawn) [Compound I-35, 1-(3,4-dimethoxyphenyl)-2-[4-[5-[4-[2-(3,4-dimethoxyphenyl)-2-hydroxy-ethoxy]phenyl]-3-thienyl]phenoxy]ethanol] | – | 303 nM | 68% | ** (** represents a decrease of HIF-a stabilization between 50 to 70%)
COc1ccc(C(O)COc2ccc(-c3noc(-c4ccc(OCC(O)c5ccc(OC)c(OC)c5)cc4)n3)cc2)cc1OC (stereo not drawn) [Compound I-36, 1-(3,4-dimethoxyphenyl)-2-[4-[5-[4-[2-(3,4-dimethoxyphenyl)-2-hydroxy-ethoxy]phenyl]-1,2,4-oxadiazol-3-yl]phenoxy]ethanol] | – | 676 nM | 62% | ** (** represents a decrease of HIF-a stabilization between 50 to 70%)

More lines, main results first:

IC50 [1] | IC50 ([1]; Homo sapiens, NCI-H460, 1 h) | SMILES | Western Blot (decrease of HIF1-a stabilization, percentage relative to control) [2] | Western Blot (range of decrease of HIF1-a stabilization) [2]
760 nM | – | COc1ccc(C(O)C(C)(C)Oc2ccc(-c3c[nH]c(-c4ccc(OC(C)(C)C(O)c5ccc(OC)c(OC)c5)cc4)n3)cc2)cc1OC (single isomer, unassigned) [Compound I-56, 1-(3,4-dimethoxyphenyl)-2-[4-[2-[4-[2-(3,4-dimethoxyphenyl)-2-hydroxy-1,1-dimethyl-ethoxy]phenyl]-1H-imidazol-4-yl]phenoxy]-2-methyl-propan-1-ol] | 75% | *** (*** represents a decrease of HIF-a stabilization higher than 70%)
– | 23 nM | COc1ccc(C(O)C(C)(C)Oc2ccc(-c3nc(-c4ccc(OC(C)(C)C(O)c5ccc(OC)c(OC)c5)cc4)c(C)o3)cc2)cc1OC (stereo not drawn) [Compound I-2, 1-(3,4-dimethoxyphenyl)-2-[4-[2-[4-[2-(3,4-dimethoxyphenyl)-2-hydroxy-1,1-dimethyl-ethoxy]phenyl]-5-methyl-oxazol-4-yl]phenoxy]-2-methyl-propan-1-ol] | 54% | ** (** represents a decrease of HIF-a stabilization between 50 to 70%)
– | 21.3 nM | COc1ccc(C(O)C(C)(C)Oc2ccc(-c3nc(-c4ccc(OC(C)(C)C(O)c5ccc(OC)c(OC)c5)cc4)c(C)s3)cc2)cc1OC (stereo not drawn) [Compound I-6, 1-(3,4-dimethoxyphenyl)-2-[4-[2-[4-[2-(3,4-dimethoxyphenyl)-2-hydroxy-1,1-dimethyl-ethoxy]phenyl]-5-methyl-thiazol-4-yl]phenoxy]-2-methyl-propan-1-ol] | 43% | * (* represents a decrease of HIF-a stabilization between 30 to 50%)
– | 7.32 nM | COc1ccc(C(O)C(C)(C)Oc2ccc(-c3csc(-c4ccc(OC(C)(C)C(O)c5ccc(OC)c(OC)c5)cc4)n3)cc2)cc1OC (stereo not drawn) [Compound I-26, 1-(3,4-dimethoxyphenyl)-2-[4-[2-[4-[2-(3,4-dimethoxyphenyl)-2-hydroxy-1,1-dimethyl-ethoxy]phenyl]thiazol-4-yl]phenoxy]-2-methyl-propan-1-ol] | 39% | * (* represents a decrease of HIF-a stabilization between 30 to 50%)
3.68 nM | – | COc1ccc(C(O)C(C)(C)Oc2ccc(-c3csc(-c4ccc(OC(C)(C)C(O)c5ccc(OC)c(OC)c5)cc4)n3)cc2)cc1OC (stereo not drawn) [Compound I-27, 1-(3,4-dimethoxyphenyl)-2-[4-[2-[4-[2-(3,4-dimethoxyphenyl)-2-hydroxy-1,1-dimethyl-ethoxy]phenyl]thiazol-4-yl]phenoxy]-2-methyl-propan-1-ol] | 40% | * (* represents a decrease of HIF-a stabilization between 30 to 50%)
– | 6 nM | COc1ccc(C(O)C(C)(C)Oc2ccc(-c3csc(-c4ccc(OC(C)(C)C(O)c5ccc(OC)c(OC)c5)cc4)c3)cc2)cc1OC (stereo not drawn) [Compound I-34, 1-(3,4-dimethoxyphenyl)-2-[4-[5-[4-[2-(3,4-dimethoxyphenyl)-2-hydroxy-1,1-dimethyl-ethoxy]phenyl]-3-thienyl]phenoxy]-2-methyl-propan-1-ol] | 64% | ** (** represents a decrease of HIF-a stabilization between 50 to 70%)
133 nM | – | COc1ccc(C(O)C(C)(C)Oc2ccc(-c3noc(-c4ccc(OC(C)(C)C(O)c5ccc(OC)c(OC)c5)cc4)n3)cc2)cc1OC (stereo not drawn) [Compound I-38, 1-(3,4-dimethoxyphenyl)-2-[4-[5-[4-[2-(3,4-dimethoxyphenyl)-2-hydroxy-11-dimethyl-ethoxy]phenyl]-1,2,4-oxadiazol-3-yl]phenoxy]-2-methyl-propan-1-ol] | 79% | *** (*** represents a decrease of HIF-a stabilization higher than 70%)
